Assay results: patent publication US11986532B2 (Arvinas Operations, Inc., priority 2021, dated 2024)

Target: T1, BCL6 (Homo sapiens, UniProt P41182)
T1 construct: endogenous in cells; host or cells: T47D breast cancer epithelial cells
Experiment: Immunofluorescence protocol for high content imaging of BCL6 (degradation) in T47D cells, 3 days compound treatment
Assay type: cell-based
Details: for Dmax: T47D, read-out: Mean Dmax (%)** category; for DC50: read-out: Mean DC50 (nM)* category
Method in brief: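 For degradation, compound series (3-fold, 11 points, top 0.1 or 1 μM final) were added to adherent T47D cultures for 3 days. BCL6 immunostaining used a rabbit antibody at 1:300 and an Alexa-488 secondary, with imaging at 10× magnification.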

## CNC(=O)COc1cc2cc(Nc3nc(N4CCC(O[C@H]5C[C@H](N6CCN(c7ccc8c(c7Cl)CN([C@H]7CCC(=O)NC7=O)C8=O)[C@H](C)C6)C5)CC4)ncc3Cl)ccc2n(C(C)C)c1=O [Compound 267, 2-({6-[(5-chloro-2-{4-[(1r,3r)-3-[(3R)-4-{4-chloro-2-[(3S)-2,6-dioxopiperidin-3-yl]-1-oxo-3H-isoindol-5-yl}-3-methylpiperazin-1-yl]cyclobutoxy]piperidin-1-yl}pyrimidin-4-yl)amino]-1-isopropyl-2-oxoquinolin-3-yl}oxy)-N-methylacetamide]
  Dmax: 50 to 70%
  DC50: < 10 nM

## CNC(=O)COc1cc2cc(Nc3nc(N4CCC(O[C@H]5C[C@H](N6CCN(c7ccc8c(c7Cl)CN([C@@H]7CCC(=O)NC7=O)C8=O)[C@H](C)C6)C5)CC4)ncc3Cl)ccc2n(C(C)C)c1=O [Compound 268, 2-({6-[(5-chloro-2-{4-[(1r,3r)-3-[(3R)-4-{4-chloro-2-[(3R)-2,6-dioxopiperidin-3-yl]-1-oxo-3H-isoindol-5-yl}-3-methylpiperazin-1-yl]cyclobutoxy]piperidin-1-yl}pyrimidin-4-yl)amino]-1-isopropyl-2-oxoquinolin-3-yl}oxy)-N-methylacetamide]
  Dmax: ≥ 70%
  DC50: < 10 nM

## CNC(=O)COc1cc2cc(Nc3nc(N4CCC(O[C@H]5C[C@H](N6CCN(c7cc8c(cc7Cl)C(=O)N([C@H]7CCC(=O)NC7=O)C8)[C@H](C)C6)C5)CC4)ncc3Cl)ccc2n(C(C)C)c1=O [Compound 269, 2-({6-[(5-chloro-2-{4-[(1r,3r)-3-[(3R)-4-{6-chloro-2-[(3S)-2,6-dioxopiperidin-3-yl]-1-oxo-2,3-dihydro-1H-isoindol-5-yl}-3-methylpiperazin-1-yl]cyclobutoxy]piperidin-1-yl}pyrimidin-4-yl)amino]-2-oxo-1-(propan-2-yl)-1,2-dihydroquinolin-3-yl}oxy)-N-methylacetamide]
  Dmax: ≥ 70%
  DC50: < 10 nM

## CNC(=O)COc1cc2cc(Nc3nc(N4CCC(CN5CCC6(CC5)CN(c5ccc7c(c5C(C)C)CN(C5CCC(=O)NC5=O)C7=O)C6)CC4)ncc3Cl)ccc2n(C(C)C)c1=O (stereo not drawn) [Compound 272, 2-{[6-({5-chloro-2-[4-({2-[2-(2,6-dioxopiperidin-3-yl)-1-oxo-4-(propan-2-yl)-2,3-dihydro-1H-isoindol-5-yl]-2,7-diazaspiro[3.5]nonan-7-yl}methyl)piperidin-1-yl]pyrimidin-4-yl}amino)-2-oxo-1-(propan-2-yl)-1,2-dihydroquinolin-3-yl]oxy}-N-methylacetamide]
  Dmax: 50 to 70%
  DC50: < 10 nM

## CNC(=O)COc1cc2cc(Nc3nc(N4CCC(O[C@H]5C[C@H](N6CCN(c7cc(F)c8c(c7F)CN(C7CCC(=O)NC7=O)C8=O)CC6)C5)CC4)ncc3Cl)ccc2n(C(C)C)c1=O (stereo partly drawn) [Compound 273, 2-({6-[(5-chloro-2-{4-[(1r,3r)-3-{4-[2-(2,6-dioxopiperidin-3-yl)-4,7-difluoro-1-oxo-2,3-dihydro-1H-isoindol-5-yl]piperazin-1-yl}cyclobutoxy]piperidin-1-yl}pyrimidin-4-yl)amino]-2-oxo-1-(propan-2-yl)-1,2-dihydroquinolin-3-yl}oxy)-N-methylacetamide]
  Dmax: 50 to 70%
  DC50: < 10 nM

## CNC(=O)COc1cc2cc(Nc3nc(N4CCC(O[C@H]5C[C@H](N6CCN(c7cc(F)c(F)c8c7C(=O)N(C7CCC(=O)NC7=O)C8)CC6)C5)CC4)ncc3Cl)ccc2n(C(C)C)c1=O (stereo partly drawn) [Compound 274, 2-({6-[(5-chloro-2-{4-[(1r,3r)-3-{4-[2-(2,6-dioxopiperidin-3-yl)-6,7-difluoro-3-oxo-2,3-dihydro-1H-isoindol-4-yl]piperazin-1-yl}cyclobutoxy]piperidin-1-yl}pyrimidin-4-yl)amino]-2-oxo-1-(propan-2-yl)-1,2-dihydroquinolin-3-yl}oxy)-N-methylacetamide]
  Dmax: < 50%
  DC50: 10 to 50 nM

## CNC(=O)COc1cc2cc(Nc3nc(N4CCC(O[C@H]5C[C@H](N6CCC(O)(c7ccc8c(c7)C(=O)N(C7CCC(=O)NC7=O)C8=O)CC6)C5)CC4)ncc3Cl)ccc2n(C(C)C)c1=O (stereo partly drawn) [Compound 275, 2-({6-[(5-chloro-2-{4-[(1r,3r)-3-{4-[2-(2,6-dioxopiperidin-3-yl)-1,3-dioxoisoindol-5-yl]-4-hydroxypiperidin-1-yl}cyclobutoxy]piperidin-1-yl}pyrimidin-4-yl)amino]-1-isopropyl-2-oxoquinolin-3-yl}oxy)-N-methylacetamide]
  Dmax: ≥ 70%
  DC50: < 10 nM

## CNC(=O)COc1cc2cc(Nc3nc(N4CCC(O[C@H]5C[C@H](N6CCC(F)(c7ccc8c(c7)C(=O)N(C7CCC(=O)NC7=O)C8=O)CC6)C5)CC4)ncc3Cl)ccc2n(C(C)C)c1=O (stereo partly drawn) [Compound 276, 2-({6-[(5-chloro-2-{4-[(1r,3r)-3-{4-[2-(2,6-dioxopiperidin-3-yl)-1,3-dioxoisoindol-5-yl]-4-fluoropiperidin-1-yl}cyclobutoxy]piperidin-1-yl}pyrimidin-4-yl)amino]-1-isopropyl-2-oxoquinolin-3-yl}oxy)-N-methylacetamide]
  Dmax: 50 to 70%
  DC50: 10 to 50 nM

## CNC(=O)COc1cc2cc(Nc3nc(N4CCC(O[C@H]5C[C@H](N6CCC(O)(c7ccc8c(c7F)CN(C7CCC(=O)NC7=O)C8=O)CC6)C5)CC4)ncc3Cl)ccc2n(C(C)C)c1=O (stereo partly drawn) [Compound 277, 2-({6-[(5-chloro-2-{4-[(1r,3r)-3-{4-[2-(2,6-dioxopiperidin-3-yl)-4-fluoro-1-oxo-2,3-dihydro-1H-isoindol-5-yl]-4-hydroxypiperidin-1-yl}cyclobutoxy]piperidin-1-yl}pyrimidin-4-yl)amino]-2-oxo-1-(propan-2-yl)-1,2-dihydroquinolin-3-yl}oxy)-N-methylacetamide]
  Dmax: 50 to 70%
  DC50: < 10 nM

## CNC(=O)COc1cc2cc(Nc3nc(N4CCC(O[C@H]5C[C@H](N6CCC(F)(c7ccc8c(c7F)CN(C7CCC(=O)NC7=O)C8=O)CC6)C5)CC4)ncc3Cl)ccc2n(C(C)C)c1=O (stereo partly drawn) [Compound 278, 2-({6-[(5-chloro-2-{4-[(1r,3r)-3-{4-[2-(2,6-dioxopiperidin-3-yl)-4-fluoro-1-oxo-2,3-dihydro-1H-isoindol-5-yl]-4-fluoropiperidin-1-yl}cyclobutoxy]piperidin-1-yl}pyrimidin-4-yl)amino]-2-oxo-1-(propan-2-yl)-1,2-dihydroquinolin-3-yl}oxy)-N-methylacetamide]
  Dmax: ≥ 70%
  DC50: < 10 nM

## CNC(=O)COc1cc2cc(Nc3nc(N4CCC(O[C@H]5C[C@H](N6CC[C@H](c7ccc8c(c7F)CN(C7CCC(=O)NC7=O)C8=O)[C@H](OC)C6)C5)CC4)ncc3Cl)ccc2n(C(C)C)c1=O (stereo partly drawn) [Compound 279, 2-({6-[(5-chloro-2-{4-[(1r,3r)-3-[(3S,4R)-4-[2-(2,6-dioxopiperidin-3-yl)-4-fluoro-1-oxo-2,3-dihydro-1H-isoindol-5-yl]-3-methoxypiperidin-1-yl]cyclobutoxy]piperidin-1-yl}pyrimidin-4-yl)amino]-2-oxo-1-(propan-2-yl)-1,2-dihydroquinolin-3-yl}oxy)-N-methylacetamide]
  Dmax: ≥ 70%
  DC50: < 10 nM

## CNC(=O)COc1cc2cc(Nc3nc(N4CCC(O[C@H]5C[C@H](N6CCC(c7cc(F)c8c(c7)C(=O)N(C7CCC(=O)NC7=O)C8)C(F)C6)C5)CC4)ncc3Cl)ccc2n(C(C)C)c1=O (stereo partly drawn) [Compound 281, 2-({6-[(5-chloro-2-{4-[(1r,3r)-3-{4-[2-(2,6-dioxopiperidin-3-yl)-7-fluoro-3-oxo-2,3-dihydro-1H-isoindol-5-yl]-3-fluoropiperidin-1-yl}cyclobutoxy]piperidin-1-yl}pyrimidin-4-yl)amino]-2-oxo-1-(propan-2-yl)-1,2-dihydroquinolin-3-yl}oxy)-N-methylacetamide]
  Dmax: < 50%
  DC50: 10 to 50 nM

## CNC(=O)COc1cc2cc(Nc3nc(N4CCC(O[C@H]5C[C@H](N6CC[C@H](c7ccc8c(c7F)CN(C7CCC(=O)NC7=O)C8=O)[C@H](O)C6)C5)CC4)ncc3Cl)ccc2n(C(C)C)c1=O (stereo partly drawn) [Compound 282, 2-({6-[(5-chloro-2-{4-[(1r,3r)-3-[(3S,4R)-4-[2-(2,6-dioxopiperidin-3-yl)-4-fluoro-1-oxo-2,3-dihydro-1H-isoindol-5-yl]-3-hydroxypiperidin-1-yl]cyclobutoxy]piperidin-1-yl}pyrimidin-4-yl)amino]-2-oxo-1-(propan-2-yl)-1,2-dihydroquinolin-3-yl}oxy)-N-methylacetamide]
  Dmax: 50 to 70%
  DC50: < 10 nM

## CNC(=O)COc1cc2cc(Nc3nc(N4CCC(O[C@H]5C[C@H](N6CCC7(c8ccc9c(c8F)CN(C8CCC(=O)NC8=O)C9=O)CC7C6)C5)CC4)ncc3Cl)ccc2n(C(C)C)c1=O (stereo partly drawn) [Compound 283, 2-({6-[(5-chloro-2-{4-[(1r,3r)-3-{6-[2-(2,6-dioxopiperidin-3-yl)-4-fluoro-1-oxo-2,3-dihydro-1H-isoindol-5-yl]-3-azabicyclo[4.1.0]heptan-3-yl}cyclobutoxy]piperidin-1-yl}pyrimidin-4-yl)amino]-2-oxo-1-(propan-2-yl)-1,2-dihydroquinolin-3-yl}oxy)-N-methylacetamide]
  Dmax: ≥ 70%
  DC50: < 10 nM

## CNC(=O)COc1cc2cc(Nc3nc(N4CCC(O[C@H]5C[C@H](N6CC[C@H](c7ccc8c(c7F)CN(C7CCC(=O)NC7=O)C8=O)[C@@H](O)C6)C5)CC4)ncc3Cl)ccc2n(C(C)C)c1=O (stereo partly drawn) [Compound 284, 2-({6-[(5-chloro-2-{4-[(1r,3r)-3-[(3R,4R)-4-[2-(2,6-dioxopiperidin-3-yl)-4-fluoro-1-oxo-2,3-dihydro-1H-isoindol-5-yl]-3-hydroxypiperidin-1-yl]cyclobutoxy]piperidin-1-yl}pyrimidin-4-yl)amino]-2-oxo-1-(propan-2-yl)-1,2-dihydroquinolin-3-yl}oxy)-N-methylacetamide]
  Dmax: 50 to 70%
  DC50: < 10 nM
